Measured values: patent US20230140798A1, “SYNTHETIC PEPTIDES DIRECTED AGAINST THE METABOTROPIC GLUTAMATE RECEPTOR 5” (Lactocore, Inc., priority 2020, published 2023)

How the values were obtained:
mGluR5 (GRM5) = assay: HEK 293 cells mGluR5-luciferase reporter assay (β-arrestin2 recruitment); type: cell-based, human; conditions: 1 mM, 16-hours incubation
Description: The methodology was previously described by Kroeze (Kroeze et al. (2015). PRESTO-Tango as an open-source resource for interrogation of the druggable human GPCRome. Nat. Struct. Mol. Biol. 22(5): 362) and the principle is illustrated in FIG. 19. Briefly, the cells of HEK293 cell line are transfected with 3 types of plasmids:
Plasmid 1: encodes fusion GRMS-tTA protein. The linker between GRMS and tTA is sensitive to TEV-protease (www.addgene.org/66390/).
Plasmid 2: encodes β-arrestin2/TEV-protease fusion protein (www.addgene.org/107245/).
Plasmid 3: luciferase tTA reporter (www.addgene.org/64127/).
Sufficient quantities of fusion proteins were produced during 24 hours after transfection. mGluR5 (GRM5) activation by a selective agonist CHPG (SEQ ID NO: 18) (1) leads to recruiting of β-arrestin2/TEV-protease fusion protein (2), that cleaves the linker between GRM5 and tTA (3). Released tTA transcription factor (4) binds with its consensus sites in tTA luciferase reporter plasmid (5) that results in activation of luciferase expression. The activity of luciferase can be used to estimate the activity of mGluR5, and application of negative allosteric modulators of mGluR5 should lead to a dose-dependent decrease in luciferase activity in this system (FIG. 19).
Sufficient quantities of the plasmids were produced using standard applications before the experiment. HEK293 cells were co-transfected with three plasmids using polyethylenimine (PEI, 408727, Sigma-Aldrich, USA) 24 hours prior to agonists application. Transfected cells were treated with agonists/antagonists and incubated overnight (16 hours). Antagonists were introduced 10 minutes prior to agonists. Luciferase test was performed using Promega™ Luciferase Assay Systems Kit (PR-E1500, Promega, USA) according to the manufacturer's protocol.
CHPG—orthosteric selective mGlu5 receptor agonist (HB0033, HelloBio, USA). […]

BALB/C mice [1] = assay: Elevated Plus Maze test, mice; type: in vivo; conditions: for behavior in EPM: 1 mg/kg i.p.
Method: (§1) After an adaptation period, the test substance was intraperitoneally injected into mice. Behavioral parameters were measured in 30 minutes after injection. No more than one test was performed per day. The tests were administered as follows: day 1—the Open field test, day 8—the Elevated plus maze test, days 15-16—the Porsolt Forced Swim (two-day modification) test.
The test consists of two closed and two open arms located opposite each other (arm length 30 cm). The height of the sides of the closed arms is 15 cm. The entire installation is raised 70 cm above the floor. Open arms have a bright uniform illumination of 400 lux, closed −30-40 lux. The animal is placed in the center of the maze, with its head facing an open arm. Within five minutes, the Noldus EthoVision XT program (for behavior tracking) automatically records the following behavior parameters: total distance traveled (in cm), time spent moving (at a speed of more than five cm/s), time spent immobile (at a speed of less than 0.2 cm/s), average and maximum velocity, the number of episodes of mobility, and freezing. The same set of parameters, as well as the latent period and the time spent, are recorded for the central sector, the open and closed arms separately.

zebrafish (Danio rerio) [2] = assay: Light/Dark Box (LDB) test; type: in vivo
Method: (§2) The tested substances were injected into the zebrafish intraperitoneally using an insulin syringe (0.5 ml, 30 g) 10 minutes before the test (15 min before for ketamine only, according to the literature data). The saline solution (0.9% NaCl) was used as a solvent. Anesthesia and immobilization of the animals were achieved by placing them in water at a temperature of 10° C. Control group fish received intraperitoneal injections of an equivalent volume of solvent, also after going through a pre-cooling procedure.
The setup for the Light/Dark preference test consisted of three main parts: a launch compartment, a light compartment made of white plastic, and a dark compartment made of black plastic. The bright lighting in these tests was provided by a lamp on a stand (LED lamp PL, 11 W, light flux≈600 Lm, about 500 Lx directly above the water surface), which was attached to the upper part of the aquarium.
(§3) The light/dark box (LDB) test was performed as previously described (Maximino et al. (2011). Pharmacological analysis of zebrafish (Danio rerio) scototaxis. Prog. Neuro-Psychopharmacol. Biol. Psychiatry. 35(2): 624-631). The zebrafish was placed in a light compartment of an LDB using a net, the camera was switched on simultaneously, and the behavior of the zebrafish was recorded for 5 minutes. The video was processed using RealTimer (OpenScience). During the processing of records, the residence time and the number of visits to the light and dark compartments of the test setup were recorded, as well as the latent period of visiting both compartments.

zebrafish (Danio rerio) [3] = assay: Novel Tank (NT) test; type: in vivo
Method: as §2
A base, back, and side walls of the aquarium were made of matte black plastic; the front panel (shorter wall) was made of transparent Plexiglas.
(§4) The Novel Tank (NT) test was performed as previously described (Maximino et al. (2013). Behavioral and neurochemical changes in the zebrafish leopard strain. G2B. 12(5): 576-582). A video recording (background shooting) was started 20-30 seconds before the zebrafish were placed in the test aquarium. The experimental zebrafish was placed in the tank using a net. The recording was being conducted for 5 minutes. The test was carried out using EthoVision XT software package (Noldus, Wageningen, Netherlands). The software registered the distance covered by the animal, its speed, the number of visits to the three conventional zones of the aquarium: “bottom,” “center,” and […] (lower, middle, and upper thirds of the aquarium, respectively), the time spent in these zones, and the latency of a visit to the middle and to the surface of the aquarium.

BALB/C mice [4] = assay: Open Field test, mice; type: in vivo
Description: Eighty male BALB/C mice were used as subjects in this example. Body weight of each specimen at the beginning of the experiment was between about 18 grams and about 20 grams. All animals were free from species-specific pathogens (specific pathogen free (SPF) status according to the Federation of European Laboratory Animal Science Associations (FELASA) list, 2014). The animals were kept in conditions of free access to water and food. The room was air-conditioned (exchange rate not less than 15 r/h) with a 12 h:12 h light-dark cycle (lights on at 09:00 am), air temperature 20-24°±2° C. (possible fluctuations of the limits no more than 2° C. per day), 30-70% humidity. For the study, the mice were separated into six different groups and the tested substances were administered to the groups as shown in Table 1. Drugs were daily prepared in fresh saline, according to the dosage. For intranasal administration (i.n.), a volume of 20 μl was used, for intraperitoneal (i.p.)—200 μl.
as §1
The test is an arena with a diameter of 63 cm, illuminated by bright light (500 Lx). Recorded parameters: total distance traveled (in cm), time spent moving (at a speed of more than five cm/s), time spent immobile (at a speed of less than 0.2 cm/s), average and maximum velocity, the number of episodes of motor activity and freezing. The same set of parameters, as well as the latent period and the time spent are recorded for the central sector. Defecation, rears (setting the animal on its hind legs) are evaluated visually. The test is designed to assess the level of motor and exploratory activity.

BALB/C mice [5] = assay: Porsolt Forced Swim test (two-day modification), mice; type: in vivo
Method: as §1
As part of this modification, two tests were carried out within two days. The installation is a transparent cylinder, 30 cm high, 10 cm in diameter and filled with water (water temperature 21° C.-23° C.) to a mark at a height of 25 cm. On the first day, each animal was dropped into the cylinder for 10 minutes. Behavioral parameters were not recorded. The animals are dropped into the cylinder for ten minutes again on the second day. The duration of active (vigorous movements with all paws) and passive (weak strokes with hind legs) swimming, as well as immobility (immobilization) (Porsolt et al. (1977). Behavioral despair in mice: a primary screening test for antidepressants. Arch Int Pharmacodyn Ther, 229(2), 327-336) are recorded. After each test the mice are placed in a heated cage until dry. The behavior indicators in this test are processed using the Real Timer Program developed by NPK “OpenScience” LLC, Russia. The sequence of events and their duration were recorded as well as basic statistical data processing was conducted.

zebrafish (Danio rerio) [6] = assay: Overall behavioral effect in zebrafish (NT and LDB tests); type: in vivo
Method: as §2, §4, §3

[7] = 10 mg/kg i.p., 30 minutes after injection

NC(C(=O)O)c1cc(O)ccc1Cl (stereo not shown) [CHPG]
luciferase signal (mGluR5 activation) (mGluR5 (GRM5)): significant induction of luciferase signal

DSGH: combinatorial tetrapeptide with the best occurrence and the LOGO analysis
behavior in EPM (BALB/C mice [1]): did not cause any changes of the behavioral parameters | number of transitions to light (zebrafish (Danio rerio) [2]; 0.5 mg/kg i.p.): decreased number of transitions to light | time spent in the light compartment (zebrafish (Danio rerio) [2]; 0.5 mg/kg i.p., trend p<0.1): decreased time spent in the light compartment | time spent in the light compartment (zebrafish (Danio rerio) [2]; 1 mg/kg i.p.): trend towards increased time spent in the light compartment | latency to enter the light (zebrafish (Danio rerio) [2]; 1 mg/kg i.p., trend p<0.10): decreased latency to enter the light | behavior in LDB test (zebrafish (Danio rerio) [2]; 10 mg/kg i.p.): did not affect the behavioral parameters | behavior in NT test (zebrafish (Danio rerio) [3]; 0.5 mg/kg i.p.): did not produced any behavioral effects | behavior in NT test (zebrafish (Danio rerio) [3]; 10 mg/kg i.p.): did not affect the behavioral parameters | behavioral parameters in Open Field test (BALB/C mice [4]; 1 mg/kg i.p.): did not cause any changes of the behavioral parameters | behavioral parameters in FST (BALB/C mice [5]; 1 mg/kg i.p.): did not cause any changes of the behavioral parameters | overall behavioral effect in Danio rerio (zebrafish (Danio rerio) [6]; 0.5 mg/kg i.p.): anxiogenic-like effect | overall behavioral effect in Danio rerio (zebrafish (Danio rerio) [6]; 1 mg/kg i.p.): potent anxiolytic-like effect | overall behavioral effect in Danio rerio (zebrafish (Danio rerio) [6]; 10 mg/kg i.p.): failed to produce any behavioral changes

AYFE: tetrapeptide chosen as a negative control [reference compound]
behavior in EPM (BALB/C mice [1]): didn't affect the behavior | behavior in LDB test (zebrafish (Danio rerio) [2]; 1 mg/kg i.p.): did not alter the behavior | behavior in LDB test (zebrafish (Danio rerio) [2]; 10 mg/kg i.p.): did not differ from control values | behavior in NT test (zebrafish (Danio rerio) [3]; 1 mg/kg i.p.): did not alter the behavior | distance travelled (locomotor activity) (zebrafish (Danio rerio) [3]; 10 mg/kg i.p.): attenuation of locomotor activity | time spent in the center (BALB/C mice [4]; 1 mg/kg i.p., 30 minutes after injection): 59.96±22.4 | time spent active swimming (BALB/C mice [5]; 1 mg/kg i.p.): increased | time spent immobile (BALB/C mice [5]; 1 mg/kg i.p.): decreased | overall behavioral effect in Danio rerio (zebrafish (Danio rerio) [6]; 1 mg/kg i.p.): did not show behavioral effects | overall behavioral effect in Danio rerio (zebrafish (Danio rerio) [6]; 10 mg/kg i.p.): produced sedation

CNC1(c2ccccc2Cl)CCCCC1=O (stereo not shown) [ketamine, reference compound]
behavior in LDB test (zebrafish (Danio rerio) [2]; 20 mg/kg i.p.): only trends towards significant differences | distance travelled (zebrafish (Danio rerio) [3]; 20 mg/kg i.p.): tendency towards increased distance travelled | latency to the top of the NT (zebrafish (Danio rerio) [3]; 20 mg/kg i.p.): did not alter | time spent at the top of the tank (zebrafish (Danio rerio) [3]; 20 mg/kg i.p.): significant increase | time spent in the middle+top of the aquarium (zebrafish (Danio rerio) [3]; 20 mg/kg i.p.): significant increase | velocity (zebrafish (Danio rerio) [3]; 20 mg/kg i.p.): increased velocity | overall behavioral effect in Danio rerio (zebrafish (Danio rerio) [6]; 20 mg/kg i.p.): anxiolytic-like responses

COCCCC/C(=N\OCCN)c1ccc(C(F)(F)F)cc1 [FA, Fluvoxamine]
time of active swimming (BALB/C mice [5]; 20 mg/kg i.p.): 103.5 ± 15.1 s | time spent immobile (BALB/C mice [5]; 20 mg/kg i.p.): 229 ± 19.8 s

AGAS: tetrapeptide AGAS, best combinatorial tetrapeptide according to the score values
freezing time (BALB/C mice [1]; 10 mg/kg i.p.): 38.7 ± 9.6 s | number of rears on the closed arms (BALB/C mice [1]; 10 mg/kg i.p.): 10.2±2.9 | distance travelled (BALB/C mice [1]; [7]): 973±78.7 cm | behavior in LDB test (zebrafish (Danio rerio) [2]; 1 mg/kg i.p.): didn't show any prominent effects | behavior in LDB test (zebrafish (Danio rerio) [2]; 5 mg/kg i.p.): didn't show any prominent effects | latency to enter the light compartment (zebrafish (Danio rerio) [2]; 10 mg/kg i.p.): decreased latency to enter the light compartment | number of transitions between compartments of LDB (zebrafish (Danio rerio) [2]; 10 mg/kg i.p.): increased number of transitions between compartments | behavior in LDB test (zebrafish (Danio rerio) [2]; 20 mg/kg i.p.): no differences between experimental and control groups | behavior in NT test (zebrafish (Danio rerio) [3]; 1 mg/kg i.p.): didn't show any prominent effects | behavior in NT test (zebrafish (Danio rerio) [3]; 5 mg/kg i.p.): didn't show any prominent effects | velocity (zebrafish (Danio rerio) [3]; 10 mg/kg i.p.): greater velocity | time spent at the top of the tank (zebrafish (Danio rerio) [3]; 20 mg/kg i.p.): decreased time spent at the top of the aquarium | velocity (zebrafish (Danio rerio) [3]; 20 mg/kg i.p.): trend towards significant reduction of velocity | number of center entries (BALB/C mice [4]; [7]): 19.3±3 | behavior in FST (BALB/C mice [5]; 10 mg/kg i.p.): did not affect the behavior | overall behavioral effect in Danio rerio (zebrafish (Danio rerio) [6]; 1 mg/kg i.p.): did not affect the behavior | overall behavioral effect in Danio rerio (zebrafish (Danio rerio) [6]; 5 mg/kg i.p.): did not affect the behavior | overall behavioral effect in Danio rerio (zebrafish (Danio rerio) [6]; 10 mg/kg i.p.): prominent anxiolytic-like activity | overall behavioral effect in Danio rerio (zebrafish (Danio rerio) [6]; 20 mg/kg i.p.): anxiogenic-like or sedative effect
